Columns and labels:
c-Met = conditions: no reference given; cited from earlier work
c-Src = c-Src (Gallus gallus, UniProt P00523); experiment: biochemical; design: species or system Chicken
[1] = system: c-Met mutations of D1228 and Y1230; conditions: cited from earlier work; for affinity against mutations of D1228 and Y1230: type I inhibitors, Fig. S10
[2] = system: c-Met mutations of L1195 and F1200; conditions: type I inhibitors; Fig. S10; cited from earlier work
c-Met F1200I mutant = conditions: Fig. S10; cited from earlier work

Question: With `C[C@H]1CNC(=O)c2cnn3ccc(nc23)N[C@H](C)c2cc(F)ccc2O1` [TPX-0005] as the compound, how does the “affinity for c-Met” value (c-Met) read?
Answer: low affinity

Question: Which IC50 (c-Src) does the source give for `CCN1Cc2c(ccc(F)c2C#N)O[C@@H](C)CNC(=O)c2c(N)nn3ccc1nc23` [TPX-0022] here?
Answer: 3.7 nM

Question: For `COc1cc2nccc(Oc3ccc(NC(=O)C4(C(=O)Nc5ccc(F)cc5)CC4)cc3)c2cc1OC` [cabozantinib], which “ability to overcome mutations of D1228 and Y1230” value ([1]; type II inhibitor) is on record?
Answer: could overcome

Question: Which “affinity against mutations of D1228 and Y1230” value [1] does the source give for `CNC(=O)c1ccc(-c2cnc3ncc(Cc4ccc5ncccc5c4)n3n2)cc1F` [capmatinib] here?
Answer: low affinity

Question: And the “activity against mutations of L1195 and F1200” value [2]?
Answer: potent activity

Question: For `C[C@@H](Oc1cc(-c2cnn(C3CCNCC3)c2)cnc1N)c1c(Cl)ccc(F)c1Cl` [crizotinib], which “potency for the F1200I mutant” value (c-Met F1200I mutant) is on record?
Answer: 50 to 200 nM

Question: What does the source list for `C[C@@H](c1ccc2nccn2c1)n1nnc2ncc(-c3cnn(C)c3)nc21` [savolitinib]?
Answer: affinity against mutations of D1228 and Y1230 [1]: low affinity; activity against mutations of L1195 and F1200 [2]: potent activity

Question: Which “affinity against mutations of D1228 and Y1230” value [1] does the source give for `CN1CCC(COc2cnc(-c3cccc(Cn4nc(-c5cccc(C#N)c5)ccc4=O)c3)nc2)CC1` [tepotinib] here?
Answer: low affinity

Question: And the “activity against mutations of L1195 and F1200” value [2]?
Answer: potent activity

Reference: paper PMC10708960 (Computational and Structural Biotechnology Journal, 2023)
